Experimental findings from ChEMBL document CHEMBL5465560, “Selectivity Literature for EUbOPEN Chemogenomic Library” (2024) are described below.

Structures are written as SMILES.

The target of series [1] is Atypical kinase COQ8A, mitochondrial (Homo sapiens, UniProt Q8NI60). Nature of the series: Selectivity interaction (KinomeScan (DiscoverX)) EUB0001079a ADCK3. The conditions noted are these: at 1 µM.
Series [2] concerns the target T1, Aurora kinase A (Homo sapiens) (UniProt O14965).
T1 sequence (whole entry): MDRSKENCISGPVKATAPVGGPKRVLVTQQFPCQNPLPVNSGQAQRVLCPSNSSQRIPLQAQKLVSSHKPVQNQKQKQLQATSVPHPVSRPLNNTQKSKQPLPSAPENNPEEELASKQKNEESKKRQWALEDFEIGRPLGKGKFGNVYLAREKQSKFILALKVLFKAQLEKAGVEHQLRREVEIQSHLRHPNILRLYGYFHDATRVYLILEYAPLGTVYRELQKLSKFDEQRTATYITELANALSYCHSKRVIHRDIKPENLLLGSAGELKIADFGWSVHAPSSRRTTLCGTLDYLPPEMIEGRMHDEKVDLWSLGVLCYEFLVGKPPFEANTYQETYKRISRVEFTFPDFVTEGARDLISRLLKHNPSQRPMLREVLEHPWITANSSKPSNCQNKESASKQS
In words: Selectivity interaction (KinomeScan (DiscoverX)) EUB0000092b STK6. The note with it: at 10 µM.

Series [3] deals with Cyclin-dependent kinase 17 (Homo sapiens) (UniProt Q00537). In words: Selectivity interaction (KinomeScan (DiscoverX)) EUB0001049a CDK17. The conditions noted are these: at 1 µM.
Series [4] deals with T2, Mitogen-activated protein kinase kinase kinase kinase 3 (Homo sapiens) (UniProt Q8IVH8).
T2 sequence (whole entry): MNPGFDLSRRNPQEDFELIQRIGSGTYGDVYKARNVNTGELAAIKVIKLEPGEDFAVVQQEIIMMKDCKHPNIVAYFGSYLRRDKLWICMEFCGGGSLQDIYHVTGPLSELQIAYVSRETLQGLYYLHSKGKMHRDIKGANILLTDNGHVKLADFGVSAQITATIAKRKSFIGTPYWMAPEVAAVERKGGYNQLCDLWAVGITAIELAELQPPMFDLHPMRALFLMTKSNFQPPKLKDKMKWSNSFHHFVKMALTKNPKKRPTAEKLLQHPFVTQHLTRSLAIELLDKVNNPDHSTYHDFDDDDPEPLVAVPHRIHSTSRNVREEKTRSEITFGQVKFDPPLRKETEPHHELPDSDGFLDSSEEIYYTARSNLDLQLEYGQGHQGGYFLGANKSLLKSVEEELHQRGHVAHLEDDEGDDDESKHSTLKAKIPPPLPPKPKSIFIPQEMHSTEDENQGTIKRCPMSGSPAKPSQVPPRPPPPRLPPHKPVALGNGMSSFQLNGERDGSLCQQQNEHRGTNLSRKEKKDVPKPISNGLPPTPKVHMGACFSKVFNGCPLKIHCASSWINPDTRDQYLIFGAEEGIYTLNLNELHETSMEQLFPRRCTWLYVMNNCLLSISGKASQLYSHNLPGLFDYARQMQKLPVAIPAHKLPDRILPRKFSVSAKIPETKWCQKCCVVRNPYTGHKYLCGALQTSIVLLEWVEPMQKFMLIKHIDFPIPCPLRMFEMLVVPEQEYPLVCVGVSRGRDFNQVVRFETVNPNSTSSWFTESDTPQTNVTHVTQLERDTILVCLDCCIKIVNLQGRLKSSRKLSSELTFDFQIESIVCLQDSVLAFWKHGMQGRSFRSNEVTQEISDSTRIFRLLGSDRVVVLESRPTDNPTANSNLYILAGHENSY
In words: Selectivity interaction (KinomeScan (DiscoverX)) EUB0001049a MAP4K3. The conditions noted are these: at 1 µM.

Series [5] addresses MAP kinase-activated protein kinase 2 (Homo sapiens, UniProt P49137). In words: Selectivity interaction (KinomeScan (DiscoverX)) EUB0000655a MAPKAPK2. The conditions noted are these: at 10 µM.
Series [6] has as its target L-type calcium channel Cav1.2 (CACNA1C) (Homo sapiens, UniProt Q13936). Nature of the series: Selectivity interaction (Panel of kinases, GPCRs, ion channels and transporters (enzymatic assay)) EUB0000223bCl CACNA1C.
The target in series [7] is T3, Cyclin-dependent kinase-like 5 (Homo sapiens) (UniProt O76039).
T3 sequence (whole entry): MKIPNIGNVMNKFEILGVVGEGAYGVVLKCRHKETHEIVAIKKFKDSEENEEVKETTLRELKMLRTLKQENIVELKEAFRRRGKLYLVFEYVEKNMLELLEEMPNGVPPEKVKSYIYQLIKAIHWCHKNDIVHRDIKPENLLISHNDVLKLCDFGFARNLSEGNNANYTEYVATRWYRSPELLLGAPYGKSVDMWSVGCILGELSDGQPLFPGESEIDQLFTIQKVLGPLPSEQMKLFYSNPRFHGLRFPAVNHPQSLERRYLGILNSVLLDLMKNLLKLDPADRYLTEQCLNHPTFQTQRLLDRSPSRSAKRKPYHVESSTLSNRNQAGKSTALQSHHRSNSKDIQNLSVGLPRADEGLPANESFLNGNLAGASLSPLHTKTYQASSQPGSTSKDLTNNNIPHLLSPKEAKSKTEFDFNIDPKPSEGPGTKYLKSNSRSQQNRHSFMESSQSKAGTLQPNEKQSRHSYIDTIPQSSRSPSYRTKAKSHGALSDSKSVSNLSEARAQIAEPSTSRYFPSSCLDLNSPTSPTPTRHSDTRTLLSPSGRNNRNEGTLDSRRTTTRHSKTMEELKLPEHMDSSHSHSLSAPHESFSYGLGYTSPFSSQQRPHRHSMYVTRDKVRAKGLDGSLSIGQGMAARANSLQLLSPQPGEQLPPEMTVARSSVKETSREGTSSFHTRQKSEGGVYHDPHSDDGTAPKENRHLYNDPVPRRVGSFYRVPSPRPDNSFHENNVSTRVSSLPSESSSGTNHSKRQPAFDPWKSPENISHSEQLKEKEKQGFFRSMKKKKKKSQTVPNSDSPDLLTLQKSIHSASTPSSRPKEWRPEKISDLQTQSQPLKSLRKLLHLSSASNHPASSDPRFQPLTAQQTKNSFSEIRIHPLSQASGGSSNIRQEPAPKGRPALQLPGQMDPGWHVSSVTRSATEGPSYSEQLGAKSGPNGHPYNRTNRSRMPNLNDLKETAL
Nature of the series: Selectivity interaction (KinomeScan (DiscoverX)) EUB0000666a CDKL5. The conditions noted are these: at 10 µM.

Series [8] deals with Tyrosine-protein kinase ABL1 (Homo sapiens, UniProt P00519). In words: Selectivity interaction (Kinase panel (Invitrogen)) EUB0000639a ABL1. The conditions noted are these: at 200 nM.
For series [9], the target named is Serine/threonine-protein kinase 26 (Homo sapiens, UniProt Q9P289). In words: Selectivity interaction (KinomeScan (DiscoverX)) EUB0000229b STK26. The note with it: at 10 µM.
Series [10] addresses Calcium/calmodulin-dependent protein kinase type 1D (Homo sapiens) (UniProt Q8IU85). Nature of the series: Selectivity interaction (Kinase panel (DSF assay)) EUB0001559a CAMK1D. A general note: DSF heats the sample and reads unfolding from a dye or from intrinsic fluorescence.
For series [11], the target named is T1, Aurora kinase A (Homo sapiens). Nature of the series: Selectivity interaction (Kinase panel (literature)) EUB0001199aCl STK6. The conditions noted are these: at 1 µM.

Sequence of Tyrosine-protein kinase ABL1 (P00519 whole entry): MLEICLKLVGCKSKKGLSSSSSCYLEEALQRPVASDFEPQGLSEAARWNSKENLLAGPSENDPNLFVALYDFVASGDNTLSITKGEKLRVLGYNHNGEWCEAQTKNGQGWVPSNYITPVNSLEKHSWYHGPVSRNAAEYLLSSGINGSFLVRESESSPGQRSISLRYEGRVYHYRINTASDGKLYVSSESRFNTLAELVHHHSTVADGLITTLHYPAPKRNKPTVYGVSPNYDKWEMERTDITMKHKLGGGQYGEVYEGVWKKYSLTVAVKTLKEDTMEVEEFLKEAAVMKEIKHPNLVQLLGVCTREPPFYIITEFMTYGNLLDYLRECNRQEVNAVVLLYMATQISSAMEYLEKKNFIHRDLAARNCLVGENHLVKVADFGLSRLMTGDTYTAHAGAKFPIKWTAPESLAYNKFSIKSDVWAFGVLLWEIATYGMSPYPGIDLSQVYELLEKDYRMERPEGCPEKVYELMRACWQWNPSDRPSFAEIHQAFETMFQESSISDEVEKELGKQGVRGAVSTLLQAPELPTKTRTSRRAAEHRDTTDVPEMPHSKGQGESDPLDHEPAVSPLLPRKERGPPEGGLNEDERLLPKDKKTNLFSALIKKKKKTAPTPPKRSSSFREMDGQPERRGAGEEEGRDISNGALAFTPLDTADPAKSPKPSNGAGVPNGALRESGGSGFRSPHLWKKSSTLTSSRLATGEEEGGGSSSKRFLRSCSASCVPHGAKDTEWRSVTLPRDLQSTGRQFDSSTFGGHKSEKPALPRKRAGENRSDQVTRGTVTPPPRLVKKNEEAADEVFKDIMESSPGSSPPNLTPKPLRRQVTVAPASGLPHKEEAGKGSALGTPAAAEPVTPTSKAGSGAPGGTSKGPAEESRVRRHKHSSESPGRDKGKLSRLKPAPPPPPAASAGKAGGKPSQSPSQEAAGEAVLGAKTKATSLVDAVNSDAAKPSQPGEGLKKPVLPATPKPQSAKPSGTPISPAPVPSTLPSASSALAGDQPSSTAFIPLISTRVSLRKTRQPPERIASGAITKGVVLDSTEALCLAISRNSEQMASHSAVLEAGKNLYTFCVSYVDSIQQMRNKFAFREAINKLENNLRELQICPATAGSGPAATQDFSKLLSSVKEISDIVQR
Sequence of Cyclin-dependent kinase 17 (Homo sapiens) (Q00537 whole entry, looked up): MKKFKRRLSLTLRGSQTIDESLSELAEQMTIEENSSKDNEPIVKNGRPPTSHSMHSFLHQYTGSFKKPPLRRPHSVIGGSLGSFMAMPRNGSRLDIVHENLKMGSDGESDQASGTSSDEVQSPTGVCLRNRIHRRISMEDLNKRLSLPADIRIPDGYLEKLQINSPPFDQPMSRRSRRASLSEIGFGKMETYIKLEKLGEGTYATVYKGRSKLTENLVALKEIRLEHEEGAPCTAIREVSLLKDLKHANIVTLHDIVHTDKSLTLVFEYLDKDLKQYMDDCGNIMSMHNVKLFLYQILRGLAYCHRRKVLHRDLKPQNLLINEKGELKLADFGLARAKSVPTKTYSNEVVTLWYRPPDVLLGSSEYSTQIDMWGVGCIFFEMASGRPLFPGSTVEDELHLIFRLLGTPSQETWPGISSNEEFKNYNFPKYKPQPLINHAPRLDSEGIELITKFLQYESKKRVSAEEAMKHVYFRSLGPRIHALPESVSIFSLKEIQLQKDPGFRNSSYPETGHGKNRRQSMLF
Sequence of L-type calcium channel Cav1.2 (CACNA1C) (Q13936 whole entry): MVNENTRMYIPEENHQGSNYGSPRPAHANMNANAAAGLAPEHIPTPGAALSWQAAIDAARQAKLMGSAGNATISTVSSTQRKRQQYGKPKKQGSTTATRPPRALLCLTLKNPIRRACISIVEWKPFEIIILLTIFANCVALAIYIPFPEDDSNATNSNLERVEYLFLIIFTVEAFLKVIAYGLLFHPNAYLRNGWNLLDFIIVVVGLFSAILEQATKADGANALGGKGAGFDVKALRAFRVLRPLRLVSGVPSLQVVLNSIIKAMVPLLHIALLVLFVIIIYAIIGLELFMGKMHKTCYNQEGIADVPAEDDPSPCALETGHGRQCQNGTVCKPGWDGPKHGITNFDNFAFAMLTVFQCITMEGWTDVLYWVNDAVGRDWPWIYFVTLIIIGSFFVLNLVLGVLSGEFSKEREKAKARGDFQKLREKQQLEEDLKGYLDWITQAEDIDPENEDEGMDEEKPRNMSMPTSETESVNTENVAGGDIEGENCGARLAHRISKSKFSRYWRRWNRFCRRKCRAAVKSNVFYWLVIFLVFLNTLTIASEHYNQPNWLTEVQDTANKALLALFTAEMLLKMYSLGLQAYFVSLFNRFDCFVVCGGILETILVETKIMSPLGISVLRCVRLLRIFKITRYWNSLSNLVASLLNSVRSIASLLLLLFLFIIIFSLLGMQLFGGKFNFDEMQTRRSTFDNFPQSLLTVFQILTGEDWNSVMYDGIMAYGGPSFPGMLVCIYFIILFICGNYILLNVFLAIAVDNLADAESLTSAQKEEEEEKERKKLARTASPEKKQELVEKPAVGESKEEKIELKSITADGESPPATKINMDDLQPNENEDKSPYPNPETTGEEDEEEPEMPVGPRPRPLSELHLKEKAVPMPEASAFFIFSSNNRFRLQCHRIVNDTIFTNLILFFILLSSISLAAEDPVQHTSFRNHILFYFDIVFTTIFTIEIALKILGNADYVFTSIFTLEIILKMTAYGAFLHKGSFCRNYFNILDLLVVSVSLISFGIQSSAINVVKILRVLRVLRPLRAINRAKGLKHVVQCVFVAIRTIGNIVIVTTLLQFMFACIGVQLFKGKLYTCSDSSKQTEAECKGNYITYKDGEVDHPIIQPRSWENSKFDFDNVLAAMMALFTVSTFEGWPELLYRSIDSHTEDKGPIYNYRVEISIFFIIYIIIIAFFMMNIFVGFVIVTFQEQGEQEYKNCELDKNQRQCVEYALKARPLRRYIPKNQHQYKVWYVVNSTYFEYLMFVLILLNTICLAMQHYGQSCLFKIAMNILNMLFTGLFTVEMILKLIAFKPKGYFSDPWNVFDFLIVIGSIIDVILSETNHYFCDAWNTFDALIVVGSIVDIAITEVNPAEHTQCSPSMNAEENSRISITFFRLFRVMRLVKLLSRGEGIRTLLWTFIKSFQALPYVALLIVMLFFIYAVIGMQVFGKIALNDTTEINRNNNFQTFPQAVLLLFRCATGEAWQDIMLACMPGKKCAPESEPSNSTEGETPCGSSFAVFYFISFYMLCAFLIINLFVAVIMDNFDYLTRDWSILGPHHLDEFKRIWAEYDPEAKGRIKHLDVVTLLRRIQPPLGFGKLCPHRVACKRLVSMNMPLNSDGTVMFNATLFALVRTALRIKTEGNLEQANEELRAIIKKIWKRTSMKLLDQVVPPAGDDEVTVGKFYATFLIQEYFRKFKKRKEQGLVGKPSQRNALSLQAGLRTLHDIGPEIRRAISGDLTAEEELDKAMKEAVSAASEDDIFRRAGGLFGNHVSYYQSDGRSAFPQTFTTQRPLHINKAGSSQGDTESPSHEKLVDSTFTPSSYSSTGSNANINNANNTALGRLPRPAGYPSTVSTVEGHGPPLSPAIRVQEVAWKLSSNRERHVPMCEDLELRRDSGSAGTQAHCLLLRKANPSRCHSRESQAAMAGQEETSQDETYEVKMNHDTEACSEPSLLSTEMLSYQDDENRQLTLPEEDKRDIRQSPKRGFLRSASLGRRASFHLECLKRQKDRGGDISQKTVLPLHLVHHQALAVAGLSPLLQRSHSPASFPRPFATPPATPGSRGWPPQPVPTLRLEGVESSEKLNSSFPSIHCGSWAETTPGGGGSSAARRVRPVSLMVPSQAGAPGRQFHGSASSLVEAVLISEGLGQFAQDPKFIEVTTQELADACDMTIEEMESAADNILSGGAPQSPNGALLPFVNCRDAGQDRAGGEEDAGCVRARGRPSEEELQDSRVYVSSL
Sequence of MAP kinase-activated protein kinase 2 (P49137 whole entry, looked up): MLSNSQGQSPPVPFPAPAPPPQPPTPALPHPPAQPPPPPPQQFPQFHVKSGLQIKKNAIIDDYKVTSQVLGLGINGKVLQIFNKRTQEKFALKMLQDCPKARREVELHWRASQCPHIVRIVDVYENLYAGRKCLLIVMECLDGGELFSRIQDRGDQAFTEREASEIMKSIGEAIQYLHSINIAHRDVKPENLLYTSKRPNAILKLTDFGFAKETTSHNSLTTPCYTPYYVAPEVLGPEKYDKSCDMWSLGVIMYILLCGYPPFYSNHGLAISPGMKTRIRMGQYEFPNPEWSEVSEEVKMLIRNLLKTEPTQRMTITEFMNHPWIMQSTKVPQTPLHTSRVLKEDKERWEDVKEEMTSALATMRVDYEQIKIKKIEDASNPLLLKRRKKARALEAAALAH
Sequence of Atypical kinase COQ8A, mitochondrial (Q8NI60 163-647 limits assumed): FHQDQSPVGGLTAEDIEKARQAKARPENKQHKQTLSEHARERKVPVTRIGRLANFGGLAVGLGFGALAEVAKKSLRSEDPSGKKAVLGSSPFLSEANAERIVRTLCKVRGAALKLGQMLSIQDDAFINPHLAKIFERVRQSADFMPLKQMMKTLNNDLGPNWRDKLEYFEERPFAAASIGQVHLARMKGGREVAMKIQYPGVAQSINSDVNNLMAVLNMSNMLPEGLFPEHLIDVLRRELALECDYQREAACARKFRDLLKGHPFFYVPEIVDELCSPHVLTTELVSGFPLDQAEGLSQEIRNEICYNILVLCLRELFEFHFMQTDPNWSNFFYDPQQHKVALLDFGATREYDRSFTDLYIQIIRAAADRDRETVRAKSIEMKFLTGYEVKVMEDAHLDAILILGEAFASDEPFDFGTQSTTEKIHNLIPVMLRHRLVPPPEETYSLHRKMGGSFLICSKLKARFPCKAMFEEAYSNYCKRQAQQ

With `Nc1cnc(N2CCc3cc(S(=O)(=O)Nc4c(F)cc(Cl)cc4F)cc(N4CCCC4=O)c32)nc1` [TP-020n], the % of control in series [1] came to 100%.
As to `CCC(=O)N1CCN(c2ccc(-n3c(=O)ccc4cnc5ccc(-c6cnc7ccccc7c6)cc5c43)cc2C(F)(F)F)CC1`, in [2], the % of control amounted to 100%.
As for `COc1cc(Nc2nc(C)cc(-c3cnn4nc(OC)ccc34)n2)cc(C(F)(F)F)c1`, the % of control in series [3] and in series [4] was 100% in each case.
In the case of `CN(C)CCOc1ccc(-c2nc(-c3ccncc3)c(-c3ccc4c(c3)CC/C4=N\O)[nH]2)cc1`, the % of control in series [5] was determined as 100%.
Take `COc1cc(C(=O)N2CC[C@@H](O)[C@@H](N)C2)cc2nc(-c3cc4ccccc4n3CC3CC3)n(C)c12`: the XC50 in [6] is 3.98 µM.
As to `O=C(NOC[C@H](O)CO)c1ccc(F)c(F)c1Nc1ccc(I)cc1F`, the % of control in series [7] turned out to be 67%.
Take `CC[C@@H]1[C@H](F)C(=O)N[C@@H]1COc1nccc2cc(C(N)=O)c(OC)cc12` [ZIMLOVISERTIB]: in [8], the % of inhibition came out at 2.34%.
`COc1cc(N(C)c2ccnc3ccc(C(F)(F)F)cc23)cc(OC)c1OC`: the % binding in series [9] stood at 99%.
`CN(C(=O)c1cnn2cccnc12)c1cc2c(cc1N1CCOCC1)C(=O)N(C[C@@H](F)C(C)(C)O)C2`: in series [10], the dTM is -0.7 K.
Regarding `CN1Cc2nccc(-c3cn(C)nc3-c3ccc(F)cc3)c2C1=O`, in series [11], the % of inhibition is -4%.
